One compound from patent US20210393547A1, “USE OF EMODIN IN TREATING RETINAL ISCHEMIA OR A DISEASE, CONDITION, OR DISORDER ASSOCIATED WITH RETINAL ISCHEMIA” (priority 2020, published 2021) can be followed below.

One experiment has as its system VEGF. Kind of experiment: Western blot of ischemic retina, VEGF to β-actin ratio. Format: in vivo, rat. Conditions: n=6, mean±S.E. The method, then: (§1) Emodin was purchased from Sigma-Aldrich (E7881; 90%; storage at 2-8° C.; from Frangula bark; St. Louis, Mo., United States). Drug administration for different procedures, namely ERG, fluorogold RGC labelling, cresyl violet retinal staining and Western blot assays, were described in Tables 3 to 6. Vehicle or emodin (5 μL) was administered via an intravitreous injection route so that these agents were then able to be directly diffused to the target. Emodin was dissolved in vehicle (DMSO:distilled water=1:3). The defined final cellular concentrations of administered drug were 0.25 or 0.5 μM, which were achieved after 40 times dilution from the stock concentrations, namely 10 or 20 μM, based on an arbitrary definition of the vitreous volume as 200 μL. To test a wider range of dose-response, 4 μM of emodin was thus added in the animal experiments. […] Denatured proteins were then obtained using lysis buffer (mammalian protein extraction reagent; […]), the samples were then sonicated and quantified to give equivalent amounts of 30 μg/30 μl/well. […] Finally, the PVDF membranes were then developed using an enhanced chemiluminescent analysis system ([…]) and scanned using an imager (Amersham Imager; LifeSciences); the amount of each protein was quantified according to scanning densitometry.
In general terms: Immunoblotting shows a protein as a band on a membrane.

The next experiment deals with β-catenin. Kind of experiment: Western blot of ischemic retina, β-catenin to β-actin ratio. Format: in vivo, rat. Conditions: n=6, mean±S.E. The procedure: as §1

`Cc1cc(O)c2c(c1)C(=O)c1cc(O)cc(O)c1C2=O` [emodin, 6-methyl-1,3,8-trihydroxyanthraquinone]: the “ratio of VEGF to β-actin protein level” value with VEGF (Emo10+IR: pre-ischemic intravitreous 10 μM emodin, Sham normalized to 1, Vehicle+IR 7.67) is 3.99±2.86; in the experiment with VEGF (Emo20+IR: pre-ischemic intravitreous 20 μM emodin, P=0.03 vs Vehicle+IR, Sham normalized to 1), 1.23±0.44. In addition, the “ratio of β-catenin to β-actin protein level” value with β-catenin (Emo10+IR: pre-ischemic intravitreous 10 μM emodin, Sham normalized to 1, Vehicle+IR 1.64) was 1.18±0.24; in the experiment with β-catenin (Emo20+IR: pre-ischemic intravitreous 20 μM emodin, P=0.02 vs Vehicle+IR, Sham normalized to 1), 1.00±0.19.
